# Reference: patent US11896561B2, “Compositions including a cannabinoid and protocatechuic acid” (priority 2021, dated 2024)
# “Also recorded” adds a separate entry of the source.
# What was measured:
# [1] = Testing of smear on glass slide (crystals deployed); format: physicochemical
# Excerpt: An additional method was employed to replicate the clinical topical application. A smear of the various concentrations was made on the glass histology blank slide to show the amount of crystals deployed for the various concentrations.
# [2] = cited from earlier work
# [3] = CBD solubility testing in liquid vehicles; format: physicochemical
# Excerpt: The liquid vehicles used are considered G.R.A.S. by FDA; distilled water, deionized water, propylene glycol and 70% isopropyl alcohol. The test containers were 125-milliliter graduated and measured sterile plastic from Wheaton company. A thermometer probe was used to assess the temperatures.
# Testing was done to determine the independent solubility of each reagent in the various vehicles. This was followed by testing the potential concentrations of each when combined. The testing started with an arbitrary solution concentration, one that could be altered for percentage of solubility.
# [4] = humans; cited from earlier work
# [5] = cited from earlier work; remark: listed apart in the source
# [6] = compared with vitamin E; cited from earlier work
# MRSA and Pseudomonas = conditions: cited from earlier work
compound,measurement,setting,value
"C=C(C)[C@@H]1CCC(C)=C[C@H]1c1c(O)cc(CCCCC)cc1O [CBD, Cannabidiol]",crystals on glass slide smear,[1]; 1% concentrations,very sparse crystals
same,crystals on glass slide smear,[1]; concentrations of 2 and 3%,abundant crystals
same,solubility in DMSO,[2]; DMSO purged with an inert gas,~60 mg/mL
same,solubility in alcohol / isopropyl alcohol,"[2]; alcohol, at the original time of extraction, by the literature",up to 90%
same,solubility in dimethyl formamide,[2]; dimethyl formamide purged with an inert gas,~50 mg/mL
same,solubility in ethanol,[2]; ethanol purged with an inert gas,approximately 35 mg/ml
same,solubility in methanol,[2]; methanol purged with an inert gas,~30 mg/mL
same,heating necessary for dissolving,[3]; 0.247 (0.247%) in 100 ml distilled water,120 degrees Fahrenheit
same,solution outcome upon cooling,"[3]; 0.247 (0.247%) in 100 ml distilled water, heated to 120 degrees Fahrenheit then cooled",went out of solution
same,time remained in solution,"[3]; 0.517 (0.5 grams) in 50 ml deionized water, preheated",at least 48 hours
same,heating necessary for dissolving,[3]; 1.0 gram (1%) in 100 ml distilled water,120 degrees Fahrenheit
same,solution outcome upon cooling,"[3]; 1.0 gram (1%) in 100 ml distilled water, heated to 120 degrees Fahrenheit then cooled",went out of solution
same,time remained in solution,"[3]; 1 gram (1%) in 100 ml propylene glycol, preliminary heating to 120 Fahrenheit, after cooling",> 48 h
same,time soluble,[3]; 1.02 gram in 100 ml isopropyl alcohol,more than 48 hours
same,temperature at which it went into solution,[3]; 1.025 grams in 50 ml deionized water,120 Fahrenheit
same,solution outcome,"[3]; 1.025 grams in 50 ml deionized water (2.05%), after cooling",came out of solution
same,solution outcome upon cooling,"[3]; 2% in 100 ml propylene glycol, heated then cooled",came out of solution
same,solution outcome,"[3]; 2 grams (4%) in 50 ml propylene glycol, with heating",did not go into solution even with heating; also recorded: not dissolved even on heating
same,time remained soluble,[3]; 3 grams in 100 ml 70% isopropyl alcohol,more than 48 hours
same,temperature required to dissolve,[3]; 40 milligrams of CBD in distilled water,140 degrees Fahrenheit
same,effect of heating in solution,[3]; heated past 100 Fahrenheit,forms a tan “glue” like material
same,effect of heating alone and/or in combination,[3]; heating above 90 Fahrenheit,tan ‘glue’ or sticky material
same,oral bioavailability,[4],approximately 6%
same,elimination half-life,[5]; in vivo,18 to 32 h
"O=C(O)c1ccc(O)c(O)c1 [PCA, Protocatechuic acid]",antioxidant power relative to vitamin E,[6],10 times
same,crystals on glass slide smear,[1]; concentrations of 2 and 3%,abundant crystals
same,life (duration in the body),[5]; in vivo,8 h
same,oral availability,"[5]; oral, in 30 minutes",100%
same,peak,[5]; time of peak in the body,2 min
same,time to heal the wound,"MRSA and Pseudomonas; topical 25 uM PCA, mammalian skin wound",2 days
same,topical dose sufficient for controlling skin wound infection,"MRSA and Pseudomonas; topical, mammalian skin wound of MRSA and Pseudomonas",25 µM
